Laboratory results reported in patent US10294207B2, “Pyrazole derivatives as TNIK, IKKϵ and TBK1 inhibitor and pharmaceutical composition comprising same” (GREEN CROSS CORPORATION, priority 2015, dated 2019).
Where a name gives a salt, the structure may show the parent alone.

What was measured:
[1] = target: T1, IKKε (Homo sapiens, UniProt Q14164); assay: IKKε inhibition, ADP-Glo Kinase Assay; type: biochemical; details: luminometer
T1 construct: purchased Invitrogen PR8031B
T1 sequence (Q14164 1-716): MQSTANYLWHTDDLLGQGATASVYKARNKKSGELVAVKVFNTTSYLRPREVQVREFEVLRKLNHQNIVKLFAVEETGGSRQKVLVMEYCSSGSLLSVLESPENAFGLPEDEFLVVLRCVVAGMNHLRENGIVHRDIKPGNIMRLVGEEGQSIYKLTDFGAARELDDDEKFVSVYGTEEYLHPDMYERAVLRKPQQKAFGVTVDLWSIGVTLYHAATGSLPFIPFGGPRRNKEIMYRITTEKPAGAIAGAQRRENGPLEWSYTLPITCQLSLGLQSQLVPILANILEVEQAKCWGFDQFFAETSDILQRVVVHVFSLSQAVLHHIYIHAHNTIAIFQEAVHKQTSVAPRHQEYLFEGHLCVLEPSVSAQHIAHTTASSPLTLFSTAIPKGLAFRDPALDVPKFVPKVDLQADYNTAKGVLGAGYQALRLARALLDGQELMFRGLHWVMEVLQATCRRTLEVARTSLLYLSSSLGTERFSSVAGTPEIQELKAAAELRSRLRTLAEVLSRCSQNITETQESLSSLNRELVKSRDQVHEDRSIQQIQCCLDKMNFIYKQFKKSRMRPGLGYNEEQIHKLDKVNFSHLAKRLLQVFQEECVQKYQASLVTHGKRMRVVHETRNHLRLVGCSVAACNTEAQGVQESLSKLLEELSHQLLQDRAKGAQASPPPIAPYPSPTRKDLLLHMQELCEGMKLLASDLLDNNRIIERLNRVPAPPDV
Summary of the method: (§1)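 ADP-Glo luminescence reported ADP produced by each kinase, following the kit protocol. Reactions used commercial kinase enzyme systems in buffer of 40 mM Tris (pH 7.5), 20 mM MgCl2 and 0.1 mg/mL BSA.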

[2] = target: T2, TBK1 (Homo sapiens, UniProt Q9UHD2); assay: TBK1 inhibition, ADP-Glo Kinase Assay; type: biochemical; details: luminometer
T2 construct: purchased Promega V3991
T2 sequence (Q9UHD2 1-729): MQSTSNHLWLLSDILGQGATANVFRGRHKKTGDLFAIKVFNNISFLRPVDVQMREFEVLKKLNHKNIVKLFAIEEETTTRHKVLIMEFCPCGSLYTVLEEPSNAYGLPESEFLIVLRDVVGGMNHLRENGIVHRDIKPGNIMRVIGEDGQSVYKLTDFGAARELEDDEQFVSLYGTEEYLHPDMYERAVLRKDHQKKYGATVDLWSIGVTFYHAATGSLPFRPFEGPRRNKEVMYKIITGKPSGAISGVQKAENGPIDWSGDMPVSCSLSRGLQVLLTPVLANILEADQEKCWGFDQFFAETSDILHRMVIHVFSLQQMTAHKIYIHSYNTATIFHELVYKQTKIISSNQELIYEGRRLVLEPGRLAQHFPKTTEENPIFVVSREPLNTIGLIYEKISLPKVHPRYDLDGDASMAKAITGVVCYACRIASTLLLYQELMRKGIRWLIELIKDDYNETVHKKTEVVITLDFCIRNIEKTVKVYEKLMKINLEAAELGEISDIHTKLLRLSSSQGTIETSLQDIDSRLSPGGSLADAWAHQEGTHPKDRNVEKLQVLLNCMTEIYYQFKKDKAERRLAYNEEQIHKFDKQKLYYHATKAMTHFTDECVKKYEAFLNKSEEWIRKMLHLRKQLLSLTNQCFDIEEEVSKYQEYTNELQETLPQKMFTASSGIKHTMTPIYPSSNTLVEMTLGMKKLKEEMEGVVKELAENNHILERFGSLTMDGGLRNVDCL
Summary of the method: as §1

Compound	IC50 [1]	IC50 [2]
CC1CN(c2ccc(C(=O)Nc3n[nH]c4ccc(C(=O)NC(C)c5ccccc5)cc34)cc2)CC(C)N1 (stereo not drawn) [Example 182, 3-(4-(3,5-Dimethylpiperazin-1-yl)benzamido)-N-(1-phenylethyl)-1H-indazole-5-carboxamide]	0.0081 µM	0.003 µM
CCC(NC(=O)c1ccc2[nH]nc(NC(=O)c3ccc(N4CC(C)NC(C)C4)cc3)c2c1)c1cccs1 (stereo not drawn) [Example 95, 3-(4-(3,5-dimethylpiperazin-1-yl)benzamido)-N-(1-(thiophen-2-yl)propyl)-1H-indazole-5-carboxamide 2,2,2-trifluoroacetate]	0.021 µM	0.0028 µM
CCC(NCc1ccc2[nH]nc(NC(=O)c3ccc(F)cc3)c2c1)c1cccs1 (stereo not drawn) [Example 32]	> 10 µM	> 10 µM
CCC(NC(=O)c1ccc2[nH]nc(NC(=O)c3ccc(N4CCNCC4)cc3)c2c1)c1ccccc1 (stereo not drawn) [Example 41, N-(1-Phenylpropyl)-3-(4-(piperazin-1-yl)benzamido)-1H-indazole-5-carboxamide]	0.047 µM	0.0039 µM
O=C(NCc1ccccn1)c1ccc2[nH]nc(NC(=O)c3ccc(N4CCOCC4)cc3)c2c1 [Example 86, 3-(4-Morpholinobenzamido)-N-(pyridin-2-ylmethyl)-1H-indazole-5-carboxamide]	0.45 µM	0.089 µM
CC(C)CCNc1ccc(C(=O)Nc2n[nH]c3ccc(C(=O)NCc4cccs4)cc23)cc1 [Example 159, 3-(4-(Isopentylamino)benzamido)-N-(thiophen-2-ylmethyl)-1H-indazole-5-carboxamide]	0.31 µM	0.033 µM
CC(NC(=O)c1ccc2[nH]nc(NC(=O)c3ccc(N4CCN(C)CC4)cc3)c2c1)c1nccs1 (stereo not drawn) [Example 82, 3-(4-(4-Methylpiperazin-1-yl)benzamido)-N-(1-(thiazol-2-yl)ethyl)-1H-indazole-5-carboxamide]	0.074 µM	0.014 µM
COc1ccc(C(=O)Nc2n[nH]c3ccc(C(=O)NCc4cccs4)cc23)nc1 [Example 8, 3-(5-Methoxypicolinamido)-N-(thiophen-2-ylmethyl)-1H-indazole-5-carboxamide Hydrochloride]	0.33 µM	0.082 µM
CCCC(NC(=O)c1ccc2[nH]nc(NC(=O)c3ccc(F)cc3)c2c1)c1cccs1 (stereo not drawn) [Example 18, 3-(4-Fluorobenzamido)-N-(1-(thiophen-2-yl)butyl)-1H-indazole-5-carboxamide]	1.23 µM	0.21 µM
O=C(Nc1n[nH]c2ccc(C(=O)NC3(c4cccs4)CC3)cc12)c1ccc(F)cc1 [Example 15, 3-(4-Fluorobenzamido)-N-(1-(thiophen-2-yl)cyclopropyl)-1H-indazole-5-carboxamide]	0.055 µM	0.025 µM
COc1ccc(C(=O)Nc2n[nH]c3ccc(C(=O)NCc4cccs4)cc23)cc1 [Example 3, 3-(4-Methoxybenzamido)-N-(thiophen-2-ylmethyl)-1H-indazole-5-carboxamide]	0.11 µM	0.038 µM
O=C(Nc1n[nH]c2ccc(C(=O)NC(c3cccs3)C3CC3)cc12)c1ccc(N2CCOCC2)cc1 (stereo not drawn) [Example 122, N-(Cyclopropyl(thiophen-2-yl)methyl)-3-(4-morpholinobenzamido)-1H-indazole-5-carboxamide]	0.025 µM	0.0044 µM
CCC(NC(=O)c1ccc2[nH]nc(NC(=O)c3ccc(N4CCN[C@@H](C)C4)cc3)c2c1)c1cccs1 (stereo partly drawn) [Example 97, 3-(4-((S)-3-Methylpiperazin-1-yl)benzamido)-N-(1-(thiophen-2-yl)propyl)-1H-indazole-5-carboxamide 2,2,2-trifluoroacetate]	0.016 µM	0.0028 µM
CN1CCN(c2ccc(C(=O)Nc3n[nH]c4ccc(C(=O)NCC5CCCC5)cc34)cc2)CC1 [Example 90, N-(Cyclopentylmethyl)-3-(4-(4-methylpiperazin-1-yl)benzamido)-1H-indazole-5-carboxamide 2,2,2-trifluoroacetate]	0.21 µM	0.013 µM
CC(NC(=O)c1ccc2[nH]nc(NC(=O)c3ccc(N4CCN[C@H](C)C4)cc3)c2c1)c1ccccc1 (stereo partly drawn) [Example 185, 3-(4-((R)-3-Methylpiperazin-1-yl)benzamido)-N-(1-phenylethyl)-1H-indazole-5-carboxamide 2,2,2-trifluoroacetate]	0.019 µM	0.0033 µM
Cc1noc(CNC(=O)c2ccc3[nH]nc(NC(=O)c4ccc(N5CCOCC5)cc4)c3c2)n1 [Example 100, N-((3-Methyl-1,2,4-oxadiazol-5-yl)methyl)-3-(4-morpholinobenzamido)-1H-indazole-5-carboxamide 2,2,2-trifluoroacetate]	0.95 µM	0.22 µM
O=C(NCc1cccs1)c1ccc2[nH]nc(NC(=O)c3ccc(NCCN4CCCC4)cc3)c2c1 [Example 152, 3-(4-((2-(Pyrrolidin-1-yl)ethyl)amino)benzamido)-N-(thiophen-2-ylmethyl)-1H-indazole-5-carboxamide]	0.092 µM	0.004 µM
CN1CCN(c2ccc(C(=O)Nc3n[nH]c4ccc(C(=O)NC(c5cccnc5)C5CC5)cc34)cc2)CC1 (stereo not drawn) [Example 143, N-(Cyclopropyl(pyridin-3-yl)methyl)-3-(4-(4-methylpiperazin-1-yl)benzamido)-1H-indazole-5-carboxamide]	0.12 µM	0.071 µM
CC(=O)Nc1ccc(C(=O)Nc2n[nH]c3ccc(C(=O)NCc4cccs4)cc23)cc1 [Example 211, 3-(4-Acetamidobenzamido)-N-(thiophen-2-ylmethyl)-1H-indazole-5-carboxamide]	0.079 µM	0.0013 µM
CN1CCN(c2ccc(C(=O)Nc3n[nH]c4ccc(C(=O)NCc5cccc(F)c5)cc34)cc2)CC1 [Example 195, N-(3-Fluorobenzyl)-3-(4-(4-methylpiperazin-1-yl)benzamido)-1H-indazole-5-carboxamide]	0.05 µM	0.0072 µM
COCCNc1ccc(C(=O)Nc2n[nH]c3ccc(C(=O)NCc4cccs4)cc23)cc1 [Example 150, 3-(4-((2-methoxyethyl)amino)benzamido)-N-(thiophen-2-ylmethyl)-1H-indazole-5-carboxamide]	0.049 µM	0.0072 µM
O=C(NCc1cncs1)c1ccc2[nH]nc(NC(=O)c3ccc(F)cc3)c2c1 [Example 27, 3-(4-Fluorobenzamido)-N-(thiazol-5-ylmethyl)-1H-indazole-5-carboxamide 2,2,2-trifluoroacetate]	0.36 µM	0.2 µM
O=C(Nc1n[nH]c2ccc(C(=O)NC(c3cccs3)C(F)(F)F)cc12)c1ccc(N2CCOCC2)cc1 (stereo not drawn) [Example 138, 3-(4-Morpholinobenzamido)-N-(2,2,2-trifluoro-1-(thiophen-2-yl)ethyl)-1H-indazole-5-carboxamide]	0.12 µM	0.039 µM
CN1CCN(c2ccc(C(=O)Nc3n[nH]c4ccc(NC(=O)Cc5cccs5)cc34)cc2)CC1 [Example 141, 4-(4-Methylpiperazin-1-yl)-N-(5-(2-(thiophen-2-yl)acetamido)-1H-indazol-3-yl)benzamide]	0.38 µM	0.024 µM
CN1CCN(c2ccc(C(=O)Nc3n[nH]c4ccc(C(=O)NCc5c[nH]nn5)cc34)cc2)CC1 [Example 94, N-((1H-1,2,3-Triazol-4-yl)methyl)-3-(4-(4-methylpiperazin-1-yl)benzamido)-1H-indazole-5-carboxamide]	1.59 µM	0.24 µM
CN1CCC(Nc2ccc(C(=O)Nc3n[nH]c4ccc(C(=O)NCc5cccs5)cc34)cc2)CC1 [Example 213]	0.069 µM	0.0044 µM
CCC(NC(=O)c1ccc2[nH]nc(NC(=O)c3ccc(N4CCOCC4)cc3)c2c1)c1ccccc1 (stereo not drawn) [Example 188, 3-(4-Morpholinobenzamido)-N-(1-phenylpropyl)-1H-indazole-5-carboxamide]	0.017 µM	0.0032 µM
